Assay results reported in patent US10660932B2, “Drug combinations and methods to stimulate embryonic-like regeneration to treat diabetes and other diseases” (UNIVERSITY OF SOUTHERN CALIFORNIA, priority 2016, dated 2020).

Key:
Assay type in all cases: cell-based
[1] = tested on: human pancreatic islets from healthy subjects (HI); experiment: Human pancreatic islet treatments and qPCR, healthy islets (HI); details: cells from normal human subjects, STS medium with IGF-1 40 ng/ml
Experimental: (§1) To investigate how the fasting mimicking conditions affect Ngn3 expression and β-cell functions in human pancreatic cells, we performed ex vivo experiments using primary human pancreatic islets (FIG. 6A). Briefly, the pancreatic islets from healthy and T1D subjects (HI and T1DI, respectively) were cultured according to the manufacturer's instructions. The cultured islets were then treated with serum from subjects enrolled in a clinical trial testing the effects of a low protein and low calorie FMD lasting 5 days (NCT02158897)^17. Serum samples were collected at baseline and at day 5 of the fasting mimicking diet in 5 subjects.
(§2) In cells from normal human subjects, these effects were reversed by IGF-1 treatment (FIG. 6G). […]
(§3) Cells were treated for 36 h with: Standard medium: Celprogen, M35002-045 for healthy islets and M35001-035 for T1D islets). […] Total RNA was extracted using RNeasy Mini kit (Qiagen) according to the manufacturer's instructions and quantified with the use of the Nanodrop system (Thermo Scientific, Waltham, Mass., USA). […] The expression level were analyzed by quantitative real-time polymerase chain reaction (PCR) on a Roche LightCycler 480II . Gene expression was quantified using the comparative Ct method.

[2] = tested on: human pancreatic islets from T1D subjects (T1DI); experiment: Human pancreatic islet treatments and qPCR, T1D islets (T1DI)
Experimental: as §1, §2, §3

PKA = PKA activity in human pancreatic islets; details: STS medium with IGF-1 40 ng/ml
Experimental: It also dampened the activity of mTOR, which is a key mediator of amino acid signaling (FIG. 6I). To further investigate the role of these nutrient sensing signaling pathways in regulating the expression of lineage markers (i.e. Sox2 and Ngn3), we tested the role of the Tor-S6K and PKA pathways, which function downstream of IGF-1, in the reprogramming of pancreatic cells. Human pancreatic islets cultured in standard medium were treated with rapamycin, which inhibits mTOR, and H89, which inhibits PKA. mTOR and PKA were implicated by our group and others in the regeneration of other cell types (Cheng et al., 2014; Yilmaz et al., 2012).
as §3
PKA activity was measured using the PKA kinase activity kit (Enzo Life Science, Inc. Farmingdale, N.Y., USA) according to manufacturer instructions.

| Compound | effect on STS-induced expression of Sox2, Ngn3 and insulin [1] | effect on STS-increased insulin and Sox 2 gene expression ([2]; human T1D cells, STS medium with IGF-1 40 ng/ml) | effect on STS-reduced PKA activity (PKA; T1D human islets) | effect on STS-reduced PKA activity (PKA; healthy human islets) | expression of lineage markers Sox2 and Ngn3 ([2]; T1DI in standard medium, 36 h, Rapamycin 20 nM, H89 20 uM) |
| --- | --- | --- | --- | --- | --- |
| IGF-1: IGF1 (40 ng/ml) (ProSpec), growth factor added to STS medium | reversed | reversed | reversed | reversed | – |
| O=S(=O)(NCCNC/C=C/c1ccc(Br)cc1)c1cccc2cnccc12 [H89, reference compound] | – | – | – | – | not induced |
